# Patent US20140303246A1, “USE OF ADAMANTANE DERIVATIVES FOR THE TREATMENT OF ACTINIC KERATOSIS” (MERZ Pharma GmbH & Co. KGaA, priority 2011, published 2014)
# Key:
# [1] = Resazurin assay, viability of cells by metabolic activity; format: cell-based; settings: human, primary human epidermal keratinocytes (NHEK), metabolic activity (Resazurin) as read-out, read-out: IC50 for the cytolytic/cytotoxic effect based on metabolic activity
# Method: (§1) By using primary human epidermal keratinocytes (NHEK, FIG. 1) the cytolytic potential of several drug compound was investigated.
# (§2) The viability of the cells was monitored by their metabolic activity using the Resazurin—assay. Eight different concentrations (up to 1 mM) of amantadine were investigated. Viability of the cells was plotted against the different concentration of test compound.
# (§3) From the resulting sigmoid-curve the IC50 value for the cytolytic effect was determined and given in the respective figure. FIG. 1 depicts the relative viability vs. the concentration on NHEK cells using metabolic activity as read-out.
# (§4) For each of these compounds, the same experiments were performed in an analogous fashion to the compound of Example 1 except that the test items were prepared in separate plates starting with the double concentrated maximal test concentration followed by a 1:3 serial dilution and then added to the cells. The test items were tested at 6 replicates/concentration. In addition to metabolic activity also the release of cytoplasmatic-lactate dehydrogenase (LDH) was used to monitor cell death. Early release (after 6 hrs) indicate membrane damage a primary mode of action
# [2] = test system: primary human epidermal keratinocytes (NHEK); test: as above; format: cell-based
# Method: as §1, §2, §3, §4
# NHEK cells = test: Release of cytoplasmatic lactate dehydrogenase (LDH) to monitor cell death / membrane damage; format: cell-based, human
# Method: as §4
SMILES,IC50 [1] [µM],cytotoxic effect (in words) [2],LDH-release at 6 hrs (early membrane damage) (NHEK cells)
"CC12CC3CC(C)(C1)CC(N)(C3)C2 [Memantine, 3,5-dimethyladamantan-1-amine]",330,clear cytotoxic activity,early membrane damage
"CC(N)C12CC3CC(CC(C3)C1)C2 (stereo not shown) [Rimantadine, 1-(1-adamantyl)ethanamine]",660,,
